Counter-ions that a name gives are not always drawn.
Test system: 22RV1 cells
Assay: Experiment 2 on inhibiting 22RV1 cell proliferation (7 days, CellTiter-Glo)
Format: cell-based
Conditions: Homo sapiens, 22Rv1, 168 h, 1% css-FBS phenol red-free medium, incubated with compound 7 days, read-out: IC50 values on proliferation inhibition of 22RV1 cells
How it was run: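 Survival measured by CellTiter-Glo after 7 days of compound exposure, normalised to DMSO controls, with IC50 fitted by dose-response. Cells (22RV1, 2000/well) were seeded overnight in 1% css-FBS phenol red-free medium before dosing.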

Compound | IC50
Cn1c(=O)n(C2CCC(=O)NC2=O)c2ccc(C3CCN(CC4CCN(C5CCN(c6nccc(COc7ccc(C(C)(C)c8cc(Cl)cc(C#N)c8)cc7)n6)CC5)CC4)CC3)cc21 (centres unmarked) [Compound 91 trifluoroacetate, 3-chloro-5-(2-(4-((2-(4-((4-(1-(2,6-dioxopiperidin-3-yl)-3-methyl-2-oxo-2,3-dihydro-1H-benzo[d]imidazol-5-yl)piperidin-1-yl)methyl)-[1,4′-bipiperidin]-1′-yl)pyrimidin-4-yl)methoxy)phenyl)propan-2-yl)benzonitrile] | 427 nM
COc1c(Cl)cc(C(C)(C)c2ccc(OCc3ccnc(N4CCC(CN5CCC(c6ccc7c(c6)n(C)c(=O)n7C6CCC(=O)NC6=O)CC5)CC4)n3)cc2)cc1C#N (centres unmarked) [Compound 92 trifluoroacetate, 3-chloro-5-(2-(4-((2-(4-((4-(1-(2,6-dioxopiperidin-3-yl)-3-methyl-2-oxo-2,3-dihydro-1H-benzo[d]imidazol-5-yl)piperidin-1-yl)methyl)piperidin-1-yl)pyrimidin-4-yl)methoxy)phenyl)propan-2-yl)-2-methoxybenzonitrile] | 900 nM
COc1c(Cl)cc(C(C)(C)c2ccc(OCc3ccnc(N4CCC5(CCC(CN6CCC(c7ccc8c(c7)n(C)c(=O)n8C7CCC(=O)NC7=O)CC6)CC5)CC4)n3)cc2)cc1C#N (centres unmarked) [Compound 93 trifluoroacetate, 3-chloro-5-(2-(4-((2-(9-((4-(1-(2,6-dioxopiperidin-3-yl)-3-methyl-2-oxo-2,3-dihydro-1H-benzo[d]imidazol-5-yl)piperidin-1-yl)methyl)-3-azaspiro[5.5]undecan-3-yl)pyrimidin-4-yl)methoxy)phenyl)propan-2-yl)-2-methoxybenzonitrile] | 554 nM
Cn1c(=O)n(C2CCC(=O)NC2=O)c2cccc(CN3CCC(N4CCC5(CCN(c6nccc(COc7ccc(C(C)(C)c8cc(Cl)cc(C#N)c8)cc7)n6)CC5)CC4)CC3)c21 (centres unmarked) [Compound 100 trifluoroacetate, 3-chloro-5-(2-(4-((2-(9-(1-((1-(2,6-dioxopiperidin-3-yl)-3-methyl-2-oxo-2,3-dihydro-1H-benzo[d]imidazol-4-yl)methyl)piperidin-4-yl)-3,9-diazaspiro[5.5]undecan-3-yl)pyrimidin-4-yl)methoxy)phenyl)propan-2-yl)benzonitrile] | 577 nM
Cn1c(=O)n(C2CCC(=O)NC2=O)c2cccc(CN3CCC4(CC3)CC(N3CCC5(CCN(c6nccc(COc7ccc(C(C)(C)c8cc(Cl)cc(C#N)c8)cc7)n6)CC5)CC3)C4)c21 (centres unmarked) [Compound 101 trifluoroacetate, 3-chloro-5-(2-(4-((2-(9-(7-((1-(2,6-dioxopiperidin-3-yl)-3-methyl-2-oxo-2,3-dihydro-1H-benzo[d]imidazol-4-yl)methyl)-7-azaspiro[3.5]nonan-2-yl)-3,9-diazaspiro[5.5]undecan-3-yl)pyrimidin-4-yl)methoxy)phenyl)propan-2-yl)benzonitrile] | 699 nM
CCOc1c(Cl)cc(C(C)(C)c2ccc(OCc3ccnc(N4CCC(CN(C)C5CCN(c6ccc7c(c6)n(C)c(=O)n7C6CCC(=O)NC6=O)CC5)CC4)n3)cc2)cc1C#N (centres unmarked) [Compound 102 trifluoroacetate, 3-chloro-5-(2-(4-((2-(4-(((1-(1-(2,6-dioxopiperidin-3-yl)-3-methyl-2-oxo-2,3-dihydro-1H-benzo[d]imidazol-5-yl)piperidin-4-yl)(methyl)amino)methyl)piperidin-1-yl)pyrimidin-4-yl)methoxy)phenyl)propan-2-yl)-2-ethoxybenzonitrile] | 641 nM
Cn1c(=O)n(C2CCC(=O)NC2=O)c2ccc(N3CCC(C4CCN(CC5CN(c6nccc(COc7ccc(C(C)(C)c8cc(Cl)cc(C#N)c8)cc7)n6)C5)CC4)CC3)cc21 (centres unmarked) [Compound 103 trifluoroacetate, 3-chloro-5-(2-(4-((2-(3-((1′-(1-(2,6-dioxopiperidin-3-yl)-3-methyl-2-oxo-2,3-dihydro-1H-benzo[d]imidazol-5-yl)-[4,4′-bipiperidin]-1-yl)methyl)azetidin-1-yl)pyrimidin-4-yl)methoxy)phenyl)propan-2-yl)benzonitrile] | 823 nM
Cn1c(=O)n(C2CCC(=O)NC2=O)c2ccc(N3CCC(C4CCN(C5CCN(c6nccc(COc7ccc(C(C)(C)c8cc(Cl)cc(C#N)c8)cc7)n6)CC5)CC4)CC3)cc21 (centres unmarked) [Compound 104 trifluoroacetate, 3-chloro-5-(2-(4-((2-(1″-(1-(2,6-dioxopiperidin-3-yl)-3-methyl-2-oxo-2,3-dihydro-1H-benzo[d]imidazol-5-yl)-[4,1′:4′,4″-terpiperidin]-1-yl)pyrimidin-4-yl)methoxy)phenyl)propan-2-yl)benzonitrile] | 664 nM

Further lines, results first:

IC50 | Compound
575 nM | Cn1c(=O)n(C2CCC(=O)NC2=O)c2ccc(C3CCN(CC4CCN(c5nccc(COc6ccc(C(C)(C)c7cc(Cl)cc(C#N)c7)cc6)n5)CC4)CC3)cc21 (centres unmarked) [Compound 105 trifluoroacetate, 3-chloro-5-(2-(4-((2-(4-((4-(1-(2,6-dioxopiperidin-3-yl)-3-methyl-2-oxo-2,3-dihydro-1H-benzo[d]imidazol-5-yl)piperidin-1-yl)methyl)piperidin-1-yl)pyrimidin-4-yl)methoxy)phenyl)propan-2-yl)benzonitrile]
550 nM | Cn1c(=O)n(C2CCC(=O)NC2=O)c2ccc(C3CCN(C4CC5(CCN(c6nccc(COc7ccc(C(C)(C)c8cc(Cl)cc(C#N)c8)cc7)n6)CC5)C4)CC3)cc21 (centres unmarked) [Compound 106 trifluoroacetate, 3-chloro-5-(2-(4-((2-(2-(4-(1-(2,6-dioxopiperidin-3-yl)-3-methyl-2-oxo-2,3-dihydro-1H-benzo[d]imidazol-5-yl)piperidin-1-yl)-7-azaspiro[3.5]nonan-7-yl)pyrimidin-4-yl)methoxy)phenyl)propan-2-yl)benzonitrile]
526 nM | CCOc1c(Cl)cc(C(C)(C)c2ccc(OCc3ccnc(N4CCC5(CC4)CC(N4CCC(c6ccc7c(c6)n(C)c(=O)n7C6CCC(=O)NC6=O)CC4)C5)n3)cc2)cc1C#N (centres unmarked) [Compound 107 trifluoroacetate, 3-chloro-5-(2-(4-((2-(2-(4-(1-(2,6-dioxopiperidin-3-yl)-3-methyl-2-oxo-2,3-dihydro-1H-benzo[d]imidazol-5-yl)piperidin-1-yl)-7-azaspiro[3.5]nonan-7-yl)pyrimidin-4-yl)methoxy)phenyl)propan-2-yl)-2-ethoxybenzonitrile]
251 nM | Cn1c(=O)n(C2CCC(=O)NC2=O)c2ccc(C3CCN(CC4CCN(C5CC6(CCN(c7nccc(COc8ccc(C(C)(C)c9cc(Cl)cc(C#N)c9)cc8)n7)CC6)C5)CC4)CC3)cc21 (centres unmarked) [Compound 108 trifluoroacetate, 3-chloro-5-(2-(4-((2-(2-(4-((4-(1-(2,6-dioxopiperidin-3-yl)-3-methyl-2-oxo-2,3-dihydro-1H-benzo[d]imidazol-5-yl)piperidin-1-yl)methyl)piperidin-1-yl)-7-azaspiro[3.5]nonan-7-yl)pyrimidin-4-yl)methoxy)phenyl)propan-2-yl)benzonitrile]
330 nM | CCOc1c(Cl)cc(C(C)(C)c2ccc(OCc3ccnc(N4CCC5(CC4)CC(N4CCC(CN6CCC(c7ccc8c(c7)n(C)c(=O)n8C7CCC(=O)NC7=O)CC6)CC4)C5)n3)cc2)cc1C#N (centres unmarked) [Compound 109 trifluoroacetate, 3-chloro-5-(2-(4-((2-(2-(4-((4-(1-(2,6-dioxopiperidin-3-yl)-3-methyl-2-oxo-2,3-dihydro-1H-benzo[d]imidazol-5-yl)piperidin-1-yl)methyl)piperidin-1-yl)-7-azaspiro[3.5]nonan-7-yl)pyrimidin-4-yl)methoxy)phenyl)propan-2-yl)-2-ethoxybenzonitrile]
419 nM | COc1c(Cl)cc(C(C)(C)c2ccc(OCc3ccnc(N4CCC5(CC4)CC(CN4CCC(c6ccc7c(c6)n(C)c(=O)n7C6CCC(=O)NC6=O)CC4)C5)n3)cc2)cc1C#N (centres unmarked) [Compound 113 trifluoroacetate, 3-chloro-5-(2-(4-((2-(2-((4-(1-(2,6-dioxopiperidin-3-yl)-3-methyl-2-oxo-2,3-dihydro-1H-benzo[d]imidazol-5-yl)piperidin-1-yl)methyl)-7-azaspiro[3.5]nonan-7-yl)pyrimidin-4-yl)methoxy)phenyl)propan-2-yl)-2-methoxybenzonitrile]
665 nM | CN(CC1CCN(c2nccc(COc3ccc(C(C)(C)c4cc(Cl)cc(C#N)c4)cc3)n2)CC1)C1CCN(c2ccc3c(c2)n(C)c(=O)n3C2CCC(=O)NC2=O)CC1 (centres unmarked) [Compound 114 trifluoroacetate, 3-chloro-5-(2-(4-((2-(4-(((1-(1-(2,6-dioxopiperidin-3-yl)-3-methyl-2-oxo-2,3-dihydro-1H-benzo[d]imidazol-5-yl)piperidin-4-yl)(methyl)amino)methyl)piperidin-1-yl)pyrimidin-4-yl)methoxy)phenyl)propan-2-yl)benzonitrile]
955 nM | Cn1c(=O)n(C2CCC(=O)NC2=O)c2cccc(C3CCN(CC4(F)CCN(C5CC6(CCN(c7nccc(COc8ccc(C(C)(C)c9cc(Cl)cc(C#N)c9)cc8)n7)CC6)C5)CC4)CC3)c21 (centres unmarked) [Compound 115 trifluoroacetate, 3-chloro-5-(2-(4-((2-(2-(4-((4-(1-(2,6-dioxopiperidin-3-yl)-3-methyl-2-oxo-2,3-dihydro-1H-benzo[d]imidazol-4-yl)piperidin-1-yl)methyl)-4-fluoropiperidin-1-yl)-7-azaspiro[3.5]nonan-7-yl)pyrimidin-4-yl)methoxy)phenyl)propan-2-yl)benzonitrile]
842 nM | CCOc1c(Cl)cc(C(C)(C)c2ccc(OCc3ccnc(N4CC5(CCC(N6CCC(c7ccc8c(c7)n(C)c(=O)n8C7CCC(=O)NC7=O)CC6)CC5)C4)n3)cc2)cc1C#N (centres unmarked) [Compound 121 trifluoroacetate, 3-chloro-5-(2-(4-((2-(7-(4-(1-(2,6-dioxopiperidin-3-yl)-3-methyl-2-oxo-2,3-dihydro-1H-benzo[d]imidazol-5-yl)piperidin-1-yl)-2-azaspiro[3.5]nonan-2-yl)pyrimidin-4-yl)methoxy)phenyl)propan-2-yl)-2-ethoxybenzonitrile]

— patent US20240383874A1, “BENZENE RING DERIVATIVE, AND COMPOSITION AND PHARMACEUTICAL USE THEREOF” (Xizang Haisco Pharmaceutical Co., Ltd., priority 2020, published 2024)
